Data as given in patent US20110020843A1, “LABEL-FREE METHODS RELATED TO PHOSPHODIESTERASES” (priority 2009, published 2011).

Legend:
A549 cells = test: DMR modulation index against panel of markers in A549 cells; format: cell-based, human
Excerpt: 191. To characterize the polypharmacology including PDE4 inhibitory activity of compounds, we used the known EGFR inhibitor tyrphostin 51 as an example. Quiescent A431 and proliferating A549 cells were separately exposed to tyrphostin 51 at 10 micromolar for about 1 hr to generate its primary profiles, followed by stimulation with each marker at a fixed concentration for another 1 hr or so to generate secondary profiles of the tyrphostin 51 against the panels of markers in both types of cells. Next, one or more specific DMR parameters were chosen as a readout for plotting the DMR index of the molecule.
193. The second panel of markers was contacted with A549 cells at concentrations close to each of the marker's EC80 or EC100, and DMR measurements were obtained with and EPIC® system. This panel included poly(I:C), SLIGKV-amide, pinacidil, PMA, histamine, and forskolin. Each of these markers also leads to a wide array of cell signaling. Using Epic® cellular assays in conjunction with chemical biology and cell biology approach similar to the EGFR DMR mentioned above, we have determined the pathway(s) and network interaction(s) that is accounted for each marker-induced DMR signal in A549 cells. The main observations are summarized below. Poly(I:C) is an agonist for endogenous Toll-like receptor(s) in A549, whose activation leads to IKK pathway and AKT pathway. SLIGKV-amide is an agonist for endogenous protease activated receptor subtype 2 (PAR2) in A549, whose activation leads to Gq-, Gi- and G12/13-mediated signaling. Pinacidil is an opener for endogenous ATP-sensitive potassium (KATP) ion channel in A549, whose activation leads to Rho- and JAK-mediated signaling. PMA is an activator for protein kinase C(PKC), whose activation leads to PKC pathway and degranulation. Histamine is a natural agonist for endogenous histamine receptors (dominantly H1R, and possibly H3R), whose activation leads to dual signaling, possibly through Gq and Gi mediated signaling in A549. Forskolin is an activator for adenylyl cyclases, whose activation leads to cAMP-PKA pathway in A549. […] Each DMR signal represents an averaged response of 4 replicates.
194. For the pinacidil DMR response in A549, the amplitude of the N-DMR (i.e., the amplitude 30 min after stimulation) was chosen. For the poly(I:C) DMR response in A549, the amplitude of the late DMR (i.e., the amplitude 50 min after stimulation) was chosen. For the PMA response in A549, the late DMR amplitude (i.e., the amplitude 50 min after stimulation) was chosen. For the SLIGKV-amide DMR response in A549, the P-DMR amplitude (i.e., the amplitude 20 min after stimulation) was chosen. For the forskolin response in A549 cells, the P-DMR amplitude (i.e., the amplitude 50 min after stimulation) was chosen. For the histamine response in A549, both the early DMR amplitude (i.e., amplitude 10 min after stimulation) and the late response (i.e., the amplitude 30 min after stimulation) were chosen. For the epinephrine response in A431, the P-DMR amplitude (i.e., the amplitude 50 min after stimulation) was chosen. For the nicotinic acid DMR in A431, the P-DMR amplitude (i.e., the amplitude 3 min after stimulation) was chosen. For the EGF DMR in A431, both the P-DMR (i.e., the amplitude 4 min after stimulation) and N-DMR amplitudes (i.e., the decaying amplitude between 4 min and 40 min after simulation) were chosen. For the histamine response in A431, the P-DMR amplitude (i.e., the amplitude 3 min after stimulation) was chosen. The percentage of modulation of the marker against each marker was calculated by normalizing the secondary profile of the molecule against the marker in the cell to the primary profile of the same marker acting on the same cell.

[1] = tested on: human lung carcinoma A549 cells; test: Label-free Epic biosensor DMR assay in A549 cells; format: cell-based; details: 10 micromolar, ultra-high confluent cells, 2 hrs in low CO2 (~2%) (FIG. 12B)
Experimental: 169. Cells were typically grown using ˜1 to 2×10^4 cells per well at passage 3 to 15 suspended in 50 μl of the corresponding culture medium in the biosensor microplate, and were cultured at 37° C. under air/5% CO2 for ˜1 day. Except for A431 which was subject to ˜20 hr starvation through continuously culture in the serum-free DMEM, the other cell types were directly assayed without starvation. The confluency for all cells at the time of assays was ˜95% to 100%.
177. Epic® wavelength interrogation system (Corning Inc., Corning, N.Y.) was used for whole cell sensing. This system consists of a temperature-control unit, an optical detection unit, and an on-board liquid handling unit with robotics. The detection unit is centered on integrated fiber optics, and enables kinetic measures of cellular responses with a time interval of ˜15 sec. The compound solutions were introduced by using the on-board liquid handling unit (i.e., pippetting).
190. Although we used A431 cells as a model, the disclosed methods are also applicable to other types.
191. To characterize the polypharmacology including PDE4 inhibitory activity of compounds, we used the known EGFR inhibitor tyrphostin 51 as an example. […] Next, one or more specific DMR parameters were chosen as a readout for plotting the DMR index of the molecule.

[2] = 10 micromolar pretreatment ~1 hr

SMILES: N#CC(C#N)=C(N)/C(C#N)=C/c1cc(O)c(O)c(O)c1 [tyrphostin 51]
- modulation of PMA DMR (late DMR amplitude 50 min) (A549 cells; [2]): −6%
- modulation of SLIGKV-amide DMR (P-DMR amplitude 20 min) (A549 cells; [2]): 0%
- modulation of forskolin DMR (P-DMR amplitude 50 min) (A549 cells; [2]): −23%
- modulation of histamine early response (amplitude 10 min) (A549 cells; [2]): +6%
- modulation of histamine late response (amplitude 30 min) (A549 cells; [2]): 0%
- modulation of poly(I:C) DMR (late DMR amplitude 50 min) (A549 cells; [2]): +5%
- effect of pretreatment on forskolin DMR signal (A549 cells; FIG. 12C): partially attenuated
- modulation of pinacidil DMR (N-DMR amplitude 30 min) (A549 cells; tyrphostin 51 at 10 micromolar pretreatment ~1 hr): 0%
- primary DMR profile [1]: closely resembled the classic Gs-DMR signals
